Test results published in ChEMBL document CHEMBL5291721, “A preclinical secondary pharmacology resource illuminates target-adverse drug reaction associations of marketed drugs” (Nat Commun, 2023).

Legend:
[1] = biological target: T1, Alpha-1A adrenergic receptor (Homo sapiens, UniProt P35348); format: functional, cell-based
T1 sequence (P35348 whole entry): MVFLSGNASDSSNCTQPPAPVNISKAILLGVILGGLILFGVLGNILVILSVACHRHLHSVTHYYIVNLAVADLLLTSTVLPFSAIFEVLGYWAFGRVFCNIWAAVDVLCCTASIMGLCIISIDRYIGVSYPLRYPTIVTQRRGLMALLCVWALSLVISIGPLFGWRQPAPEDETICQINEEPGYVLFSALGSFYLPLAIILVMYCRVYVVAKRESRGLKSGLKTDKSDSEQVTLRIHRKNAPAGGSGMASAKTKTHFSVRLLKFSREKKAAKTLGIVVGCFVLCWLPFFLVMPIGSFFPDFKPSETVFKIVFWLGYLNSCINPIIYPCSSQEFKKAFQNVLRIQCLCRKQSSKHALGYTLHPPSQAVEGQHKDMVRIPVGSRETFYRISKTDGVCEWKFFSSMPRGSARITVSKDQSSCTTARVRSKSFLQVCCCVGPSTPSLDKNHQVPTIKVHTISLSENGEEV

Histamine H2 receptor = Histamine H2 receptor (Homo sapiens, UniProt P25021); format: functional, cell-based
Sequence of Histamine H2 receptor (P25021 whole entry): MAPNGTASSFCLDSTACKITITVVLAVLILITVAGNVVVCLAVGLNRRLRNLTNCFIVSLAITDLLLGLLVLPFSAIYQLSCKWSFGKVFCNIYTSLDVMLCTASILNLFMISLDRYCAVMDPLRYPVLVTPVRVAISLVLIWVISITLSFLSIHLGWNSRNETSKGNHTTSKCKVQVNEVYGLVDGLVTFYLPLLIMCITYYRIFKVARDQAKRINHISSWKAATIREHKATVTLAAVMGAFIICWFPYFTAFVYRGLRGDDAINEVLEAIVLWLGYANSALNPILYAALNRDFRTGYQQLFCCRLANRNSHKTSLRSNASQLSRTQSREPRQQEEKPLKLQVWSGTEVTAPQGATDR

Vasopressin V1a receptor = Vasopressin V1a receptor (Homo sapiens, UniProt P37288)
Sequence of Vasopressin V1a receptor (P37288 whole entry): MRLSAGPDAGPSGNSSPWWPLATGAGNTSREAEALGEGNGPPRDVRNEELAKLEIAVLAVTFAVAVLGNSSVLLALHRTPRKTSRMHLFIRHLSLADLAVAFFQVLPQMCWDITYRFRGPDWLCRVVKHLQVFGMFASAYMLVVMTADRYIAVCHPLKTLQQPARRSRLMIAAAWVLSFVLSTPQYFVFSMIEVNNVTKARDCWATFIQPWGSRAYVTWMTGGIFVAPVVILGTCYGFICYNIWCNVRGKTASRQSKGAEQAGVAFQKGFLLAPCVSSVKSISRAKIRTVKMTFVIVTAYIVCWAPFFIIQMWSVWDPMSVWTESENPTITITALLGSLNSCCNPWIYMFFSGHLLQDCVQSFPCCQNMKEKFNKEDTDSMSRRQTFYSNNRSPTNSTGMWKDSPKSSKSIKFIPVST

[2] = biological target: Gamma-aminobutyric acid receptor subunit alpha-1 (Rattus norvegicus, UniProt P62813); format: functional
Sequence of Gamma-aminobutyric acid receptor subunit alpha-1 (P62813 whole entry): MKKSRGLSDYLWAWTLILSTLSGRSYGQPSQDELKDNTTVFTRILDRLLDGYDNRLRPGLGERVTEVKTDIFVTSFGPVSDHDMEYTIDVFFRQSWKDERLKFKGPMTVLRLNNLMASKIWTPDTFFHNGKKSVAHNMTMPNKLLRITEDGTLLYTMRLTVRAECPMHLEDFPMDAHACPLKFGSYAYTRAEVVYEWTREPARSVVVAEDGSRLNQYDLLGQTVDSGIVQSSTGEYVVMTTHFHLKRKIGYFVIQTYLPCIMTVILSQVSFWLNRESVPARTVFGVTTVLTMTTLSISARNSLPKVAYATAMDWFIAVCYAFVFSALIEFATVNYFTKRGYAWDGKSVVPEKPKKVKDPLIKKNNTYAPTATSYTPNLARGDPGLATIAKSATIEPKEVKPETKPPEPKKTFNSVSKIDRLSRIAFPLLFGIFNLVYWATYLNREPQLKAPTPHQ

[3] = biological target: T2, Type-1 angiotensin II receptor (Homo sapiens, UniProt P30556)
T2 sequence (P30556 whole entry): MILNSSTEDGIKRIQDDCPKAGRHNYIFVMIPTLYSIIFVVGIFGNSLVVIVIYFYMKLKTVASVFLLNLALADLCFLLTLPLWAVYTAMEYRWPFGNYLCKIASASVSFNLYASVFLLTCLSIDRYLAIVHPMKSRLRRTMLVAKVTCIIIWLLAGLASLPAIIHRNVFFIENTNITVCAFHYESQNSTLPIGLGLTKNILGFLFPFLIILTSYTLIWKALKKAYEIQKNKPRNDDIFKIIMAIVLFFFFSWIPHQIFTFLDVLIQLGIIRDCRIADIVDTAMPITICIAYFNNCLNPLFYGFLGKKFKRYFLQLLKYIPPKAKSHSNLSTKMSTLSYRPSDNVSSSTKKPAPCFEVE

[4] = biological target: 5-hydroxytryptamine receptor 2B (Homo sapiens, UniProt P41595); format: functional, cell-based
Sequence of 5-hydroxytryptamine receptor 2B (P41595 whole entry): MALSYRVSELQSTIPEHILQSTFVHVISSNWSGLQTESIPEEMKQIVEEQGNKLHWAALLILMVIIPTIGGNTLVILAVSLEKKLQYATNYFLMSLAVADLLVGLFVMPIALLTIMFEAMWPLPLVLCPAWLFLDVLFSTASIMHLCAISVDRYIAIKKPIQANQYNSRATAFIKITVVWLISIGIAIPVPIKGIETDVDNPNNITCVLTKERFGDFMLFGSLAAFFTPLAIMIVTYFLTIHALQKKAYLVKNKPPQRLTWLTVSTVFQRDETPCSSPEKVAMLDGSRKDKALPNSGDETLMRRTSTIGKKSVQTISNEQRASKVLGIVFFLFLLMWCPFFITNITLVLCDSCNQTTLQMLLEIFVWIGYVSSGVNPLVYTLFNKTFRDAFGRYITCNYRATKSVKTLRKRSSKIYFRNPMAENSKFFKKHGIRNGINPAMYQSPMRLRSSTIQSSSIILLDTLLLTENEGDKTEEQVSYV

Vasopressin V2 receptor = Vasopressin V2 receptor (Homo sapiens, UniProt P30518)
Sequence of Vasopressin V2 receptor (P30518 whole entry): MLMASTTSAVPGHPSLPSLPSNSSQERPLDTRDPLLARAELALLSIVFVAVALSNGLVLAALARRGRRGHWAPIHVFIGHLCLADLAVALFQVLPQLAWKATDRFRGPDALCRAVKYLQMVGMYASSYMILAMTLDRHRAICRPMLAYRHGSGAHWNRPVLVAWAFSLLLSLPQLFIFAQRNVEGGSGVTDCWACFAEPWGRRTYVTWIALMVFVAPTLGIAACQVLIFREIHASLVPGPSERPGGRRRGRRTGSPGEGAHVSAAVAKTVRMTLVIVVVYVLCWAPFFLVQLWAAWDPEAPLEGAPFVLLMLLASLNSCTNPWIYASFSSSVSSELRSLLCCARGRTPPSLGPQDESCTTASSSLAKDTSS

[5] = biological target: T3, Muscarinic acetylcholine receptor M1 (Homo sapiens, UniProt P11229); format: functional
T3 sequence (P11229 whole entry): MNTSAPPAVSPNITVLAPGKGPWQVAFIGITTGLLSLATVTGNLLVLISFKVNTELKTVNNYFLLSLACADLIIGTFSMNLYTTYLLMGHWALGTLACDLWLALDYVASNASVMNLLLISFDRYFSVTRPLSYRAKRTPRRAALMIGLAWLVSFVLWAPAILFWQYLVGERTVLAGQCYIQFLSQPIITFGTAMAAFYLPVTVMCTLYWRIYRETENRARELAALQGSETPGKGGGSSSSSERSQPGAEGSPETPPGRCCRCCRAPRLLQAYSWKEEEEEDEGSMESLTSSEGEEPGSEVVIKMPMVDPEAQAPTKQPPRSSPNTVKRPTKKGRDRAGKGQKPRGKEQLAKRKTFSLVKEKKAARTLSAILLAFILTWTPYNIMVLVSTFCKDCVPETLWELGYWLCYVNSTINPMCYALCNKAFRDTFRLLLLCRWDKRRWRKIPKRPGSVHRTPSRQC

[6] = biological target: T4, Alpha-2A adrenergic receptor (Homo sapiens, UniProt P08913); format: functional, cell-based
T4 sequence (P08913 whole entry): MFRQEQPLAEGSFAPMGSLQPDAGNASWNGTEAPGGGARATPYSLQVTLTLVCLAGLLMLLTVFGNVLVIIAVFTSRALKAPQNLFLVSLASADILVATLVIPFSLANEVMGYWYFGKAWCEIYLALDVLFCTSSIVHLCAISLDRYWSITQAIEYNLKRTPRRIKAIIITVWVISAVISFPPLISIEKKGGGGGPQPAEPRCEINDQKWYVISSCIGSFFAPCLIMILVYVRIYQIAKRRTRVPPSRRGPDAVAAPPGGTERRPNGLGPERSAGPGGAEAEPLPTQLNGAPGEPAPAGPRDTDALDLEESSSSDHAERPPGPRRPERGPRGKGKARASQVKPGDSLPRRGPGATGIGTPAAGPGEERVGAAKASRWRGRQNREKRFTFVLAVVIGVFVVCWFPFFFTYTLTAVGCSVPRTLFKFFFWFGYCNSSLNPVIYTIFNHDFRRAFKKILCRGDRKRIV

[7] = biological target: T5, Amine oxidase [flavin-containing] A (Homo sapiens, UniProt P21397); format: functional
T5 sequence (P21397 whole entry): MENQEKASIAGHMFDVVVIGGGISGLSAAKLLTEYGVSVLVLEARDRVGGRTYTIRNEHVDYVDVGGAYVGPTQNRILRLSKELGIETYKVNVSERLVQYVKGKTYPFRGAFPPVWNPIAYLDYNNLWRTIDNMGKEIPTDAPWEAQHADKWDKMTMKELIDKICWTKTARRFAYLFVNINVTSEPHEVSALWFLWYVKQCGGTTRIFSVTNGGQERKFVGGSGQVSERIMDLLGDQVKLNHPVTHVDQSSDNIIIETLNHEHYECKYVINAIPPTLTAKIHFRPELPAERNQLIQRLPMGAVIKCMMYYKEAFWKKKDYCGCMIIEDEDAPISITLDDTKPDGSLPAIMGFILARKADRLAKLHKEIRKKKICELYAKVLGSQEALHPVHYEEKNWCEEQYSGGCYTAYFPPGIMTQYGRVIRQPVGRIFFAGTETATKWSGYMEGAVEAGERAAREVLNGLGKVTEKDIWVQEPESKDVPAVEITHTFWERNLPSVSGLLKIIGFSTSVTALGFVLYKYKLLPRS

[8] = biological target: Beta-2 adrenergic receptor (Homo sapiens, UniProt P07550)
Sequence of Beta-2 adrenergic receptor (P07550 whole entry): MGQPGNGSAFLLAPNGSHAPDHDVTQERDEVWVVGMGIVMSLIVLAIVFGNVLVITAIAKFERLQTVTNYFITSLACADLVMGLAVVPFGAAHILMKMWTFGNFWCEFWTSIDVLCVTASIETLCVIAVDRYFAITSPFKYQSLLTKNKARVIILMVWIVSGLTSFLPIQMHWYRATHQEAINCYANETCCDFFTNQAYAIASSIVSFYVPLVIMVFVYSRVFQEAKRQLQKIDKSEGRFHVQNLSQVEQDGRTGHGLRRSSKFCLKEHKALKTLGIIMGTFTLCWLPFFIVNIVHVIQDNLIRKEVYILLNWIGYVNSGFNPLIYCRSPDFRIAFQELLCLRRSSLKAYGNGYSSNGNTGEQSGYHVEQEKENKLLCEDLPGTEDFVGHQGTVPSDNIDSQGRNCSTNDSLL

Mu-type opioid receptor = Mu-type opioid receptor (Homo sapiens, UniProt P35372)
Sequence of Mu-type opioid receptor (P35372 whole entry): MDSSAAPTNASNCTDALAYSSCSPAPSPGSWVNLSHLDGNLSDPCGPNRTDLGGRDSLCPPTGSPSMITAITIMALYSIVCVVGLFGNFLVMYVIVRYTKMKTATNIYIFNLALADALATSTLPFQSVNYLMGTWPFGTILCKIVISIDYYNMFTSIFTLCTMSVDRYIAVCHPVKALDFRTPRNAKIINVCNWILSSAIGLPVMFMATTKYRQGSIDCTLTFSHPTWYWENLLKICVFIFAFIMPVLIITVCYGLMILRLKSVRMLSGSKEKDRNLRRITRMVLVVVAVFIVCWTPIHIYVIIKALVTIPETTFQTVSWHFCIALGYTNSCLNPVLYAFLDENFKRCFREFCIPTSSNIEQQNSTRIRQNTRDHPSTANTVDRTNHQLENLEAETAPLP
Note: assay procedure not described here.

CC(C)OC(=O)C(C(=O)OC(C)C)=C1SC=CS1 [MALOTILATE]
AC50 [1]: > 30 µM | AC50 (Histamine H2 receptor): > 30 µM | AC50 (Vasopressin V1a receptor): > 30 µM | AC50 [2]: 15 µM | AC50 [3]: > 30 µM | AC50 [4]: > 30 µM | AC50 (Vasopressin V2 receptor): > 30 µM | AC50 [5]: > 30 µM | AC50 [6]: > 30 µM | AC50 [7]: > 30 µM | AC50 [8]: > 30 µM

CN(c1nccc(=O)[nH]1)C1CCN(c2nc3ccccc3n2Cc2ccc(F)cc2)CC1 [MIZOLASTINE]
AC50 [1]: > 30 µM | AC50 (Histamine H2 receptor): > 30 µM | AC50 (Vasopressin V1a receptor): > 30 µM | AC50 [2]: > 30 µM | AC50 [3]: > 30 µM | AC50 [4]: > 30 µM | AC50 (Vasopressin V2 receptor): > 30 µM | AC50 [5]: 0.011 µM | AC50 [6]: > 30 µM | AC50 [7]: > 30 µM | AC50 [8]: > 30 µM

CC(=O)c1ccc2c(c1)N(CCCN1CCC(CCO)CC1)c1ccccc1S2 [PIPERACETAZINE]
AC50 [1]: > 30 µM | AC50 (Histamine H2 receptor): > 30 µM | AC50 (Vasopressin V1a receptor): > 30 µM | AC50 [2]: > 30 µM | AC50 [3]: > 30 µM | AC50 [4]: > 30 µM | AC50 (Vasopressin V2 receptor): > 30 µM | AC50 [5]: 7.9 µM | AC50 [6]: > 30 µM | AC50 [7]: > 30 µM | AC50 [8]: 22 µM

Cc1ccc(=O)n(-c2ccccc2)c1 [PIRFENIDONE]
AC50 [1]: > 30 µM | AC50 (Histamine H2 receptor): > 30 µM | AC50 (Vasopressin V1a receptor): > 30 µM | AC50 [2]: > 30 µM | AC50 [3]: > 30 µM | AC50 [4]: > 30 µM | AC50 (Vasopressin V2 receptor): > 30 µM | AC50 [5]: > 30 µM | AC50 [6]: > 30 µM | AC50 [7]: > 30 µM | AC50 [8]: > 30 µM | AC50 (Mu-type opioid receptor): > 30 µM

CCN(CC)CC(=O)Oc1ccc(NC(C)=O)cc1 [PROPACETAMOL]
AC50 [1]: > 30 µM | AC50 (Histamine H2 receptor): > 30 µM | AC50 (Vasopressin V1a receptor): > 30 µM | AC50 [2]: > 30 µM | AC50 [3]: > 30 µM | AC50 [4]: > 30 µM | AC50 (Vasopressin V2 receptor): > 30 µM | AC50 [5]: > 30 µM | AC50 [6]: > 30 µM | AC50 [7]: > 30 µM | AC50 [8]: > 30 µM

CCCOC(C(=O)OC1CCN(C)CC1)(c1ccccc1)c1ccccc1 [PROPIVERINE]
AC50 [1]: > 30 µM | AC50 (Histamine H2 receptor): > 30 µM | AC50 (Vasopressin V1a receptor): > 30 µM | AC50 [2]: > 30 µM | AC50 [3]: > 30 µM | AC50 [4]: > 30 µM | AC50 (Vasopressin V2 receptor): > 30 µM | AC50 [5]: 1.7 µM | AC50 [6]: > 30 µM | AC50 [7]: > 30 µM | AC50 [8]: > 30 µM | AC50 (Mu-type opioid receptor): 0.75 µM

Cc1ccc2c(-c3ccccc3)nc(=O)n(C(C)C)c2c1 [PROQUAZONE]
AC50 [1]: > 30 µM | AC50 (Histamine H2 receptor): > 30 µM | AC50 (Vasopressin V1a receptor): > 30 µM | AC50 [2]: > 30 µM | AC50 [3]: > 30 µM | AC50 [4]: > 30 µM | AC50 (Vasopressin V2 receptor): > 30 µM | AC50 [5]: > 30 µM | AC50 [6]: > 30 µM | AC50 [7]: > 30 µM | AC50 [8]: > 30 µM

CN1c2ccccc2C(NCCCCCCC(=O)O)c2ccc(Cl)cc2S1(=O)=O (stereo unspecified) [TIANEPTINE]
AC50 [1]: > 30 µM | AC50 (Histamine H2 receptor): > 30 µM | AC50 (Vasopressin V1a receptor): > 30 µM | AC50 [2]: > 30 µM | AC50 [3]: > 30 µM | AC50 [4]: > 30 µM | AC50 (Vasopressin V2 receptor): > 30 µM | AC50 [5]: > 30 µM | AC50 [6]: > 30 µM | AC50 [7]: > 30 µM | AC50 [8]: > 30 µM | AC50 (Mu-type opioid receptor): > 30 µM
